Data from US10093973B2, “Polymerase compositions and methods” (LIFE TECHNOLOGIES CORPORATION, priority 2009, dated 2018).

Columns and labels:
Type in all cases: biochemical
[1] = test system: ωdN4P and non-extendible AF546 primer:template duplex; assay: Stopped-flow t−1 measurement of Example 7; conditions: modified versus reference polymerase, ωdN4P 14 μM
Protocol: In this example, the t−1 values of an exemplary modified polymerase comprising the amino acid of SEQ ID NO: 8 and an exemplary reference polymerase comprising the amino acid sequence of SEQ ID NO: 20 were measured and compared. These kinetic parameters were evaluated using an assay system wherein mixtures comprising a test polymerase and a primer:template duplex were mixed in a stopped-flow assay with nucleotides. To measure t−1, the primer used to form the primer:template duplex was a non-extendible primer including a dideoxynucleotide at its 3′ end, and the template was a synthetic DNA template comprising a donor Alexa Fluor 546 moiety at its 5′ end. […] The ternary complex was mixed with unlabeled nucleotides in a stopped-flow experiment, and the resulting fluorescence was monitored as described below. […]
Preincubated mixtures comprising 200 nM of a primer:templex duplex, 660 nM of test polymerase, and 14 μM of ωdN4P were prepared and then mixed with a solution comprising the unlabeled cognate nucleotide (50 μM) in a stopped-flow apparatus. The fluorescence at both 546 nm and 647 nm was monitored following mixing. The averaged stopped-flow fluorescence traces were fitted with a single exponential function having the form of Equation (1) to extrapolate the t−1 value of the test polymerase.

[2] = test system: ωdN4P and extendible AF546 primer:template duplex; assay: Stopped-flow tpol measurement of Example 8; conditions: modified versus reference polymerase, ωdN4P 14 μM
Protocol: In this example, the tpol values of an exemplary modified polymerase comprising the amino acid of SEQ ID NO: 8 and was measured and compared to the tpol value of an exemplary reference polymerase comprising the amino acid sequence of SEQ ID NO: 20. These kinetic parameters were evaluated using a stopped-flow assay wherein a mixture comprising an extendible dye-labeled primer:template duplex and test polymerase was mixed with a solution comprising terminally-labeled nucleotide tetraphosphates or terminally-labeled nucleotide hexaphosphates. These terminally-labeled nucleotides comprise terminal-phosphate-labeled nucleotides having an alkyl linker with a functional amine group attached to the dye. The fluorescence of the resulting mixture was monitored over time. Unless noted otherwise, all concentrations refer to the initial concentrations prior to mixing. […]
Each primer-template duplex (200 nM) was preincubated with test polymerase (660 nM) and to form an E.DNA binary complex. This binary complex was mixed with the cognate omega-labeled nucleoside tetraphosphate (ωdN4P; 14 μM) in a stopped-flow experiment, and the fluorescence at both 546 nm and 647 nm was monitored following mixing. The averaged stopped-flow fluorescence traces were fitted with the double exponential function of Equation (2) to extrapolate the tpol value of the test polymerase: […]

[3] = test system: AF647-C6-dG6P in [enzyme.DNA.nucleotide] ternary complex with dideoxy-primer/template duplex; assay: Stopped-flow measurement of t−1 (nucleotide dissociation from ternary complex); parameters: unit not given here; conditions: t−1 = 1/k−1; ternary complex with 7 μM AF647-C6-dG6P chased with 50 μM non-labeled nucleotide, 2 mM MnCl2
Protocol: Stopped-Flow Measurements of t−1
The stopped-flow techniques for measuring t−1 ([…]) followed the techniques described by M. Bakhtina (2009 Biochemistry 48:3197-3208).
The rate of the nucleotide dissociation ([…]) from the ternary complex of [enzyme.DNA.nucleotide] was measured in an Applied Photophysics SX20 stopped-flow spectrometer by monitoring changes […] a duplex Alexa fluor 546 dye-labeled-DNA template following the mixing of the [enzyme.DNA.labeled nucleotide] ternary complex with 50 μM cognate non-labeled deoxynucleoside triphosphate in a buffer containing 50 mM Tris-HCl (pH 7.5), 50 mM NaCl, 4 mM DTT, 0.2% BSA, and 2 mM MnCl2.
The ternary complexes were prepared using: 330 nM polymerase, 100 nM template/primer duplex, and 7 μM terminal phosphate-labeled nucleotides (AF647-C6-dG6P).
The averaged stopped-flow fluorescence traces (>1.5 msec) were fitted with a single exponential equation (2) to extrapolate the rate of the nucleotide dissociation (k−1) from the [enzyme.DNA.nucleotide] ternary complex. Fluorescence=A1*e^−k−1*t+C (equation 2) where A1 represents the corresponding fluorescence amplitude, C is an offset constant, and k−1 and the observed rate constants for the fluorescence transition.

[4] = test system: AF647-C6-dG6P and Alexa Fluor 546 dye-labeled primer-template duplex; assay: Stopped-flow measurement of tpol (nucleotide incorporation kinetics); parameters: unit not given here; conditions: tpol = 1/kpol; 7 μM AF647-C6-dG6P, 330 nM polymerase, 100 nM template/primer duplex, 2 mM MnCl2
Protocol: In this example, the t−1 and tpol values of a Phi-29 polymerase comprising the amino acid sequence of SEQ ID NO: 1 and a modified B103 polymerase comprising the amino acid sequence of SEQ ID NO: 8 (referred to as “mB103 in the table below) and further including amino acid substitutions at various positions were measured using a stopped-flow procedure. The stopped-flow techniques for measuring tpol (1/kpol) followed the techniques described by MP Roettger (2008 Biochemistry 47:9718-9727; M. Bakhtina 2009 Biochemistry 48:3197-320).
Stopped-Flow Measurements of tpol
The template sequence (SEQ ID NO: 44) further included an Alexa Fluor 546 dye moiety bonded to the 5′ position of the template.
The kinetics of nucleotide incorporation by each polymerase was measured in an Applied Photophysics SX20 stopped-flow spectrometer by monitoring changes in fluorescence from the dye-labeled primer-template duplex complexed to enzyme, following the mixing of the enzyme-DNA complex with dye-labeled nucleotides. These dye-labeled nucleotides comprise terminal-phosphate-labeled nucleotides having an alkyl linker with a functional amine group attached to the dye, and have the general structure shown in FIG. 11. This structure includes a sugar bonded to a hexaphosphate chain at the 5′ carbon position, and to a nucleotide base (denoted as “N”). The terminal phosphate group of the hexaphosphate is linked to a 6-carbon linker, and the other end of the 6-carbon linker is attached to a dye moiety (denoted as “dye”), typically through an amide bond. In this example, the particular dye-labeled nucleotide added was a labeled nucleotide hexaphosphate comprising a guanine base at the N (base) position and an Alexa Fluor 647 (AF647) at the dye position, and is referred to herein as “AF647-C6-dG6P”.
The primer and template were annealed to form a dye-labeled primer-template duplex using standard methods. This duplex was preincubated with polymerase. The mixture included 330 nM recombinant DNA polymerase, 100 nM template/primer duplex in buffer (“reaction buffer”) comprising 50 mM Tris-HCl, pH 7.5, 50 mM NaCl, 4 mM DTT, 0.2% BSA, and 2 mM MnCl2. The dye-labeled nucleotide AF647-C6-dG6P was then added to a final concentration of 7 μM, and the resulting fluorescence was monitored over time.
The averaged (5 traces) stopped-flow fluorescence traces (>1.5 ms) were fitted with a double exponential equation (1) to extrapolate the rates of the nucleotide binding and product release, Fluorescence=A1*e^−k1*t+A2*e^−kpol*t+C (equation 1) where A1 and A2 represent corresponding fluorescence amplitudes, C is an offset constant, and k1 and kpol are the observed rate constants for the fast and slow phases of the fluorescence transition, respectively.

[5] = test system: Invitrogen Low Mass ladder; assay: Exonuclease activity assay; conditions: 2, 4 or 10 μg enzyme, 16 hours at 37° C., visual assessment of ladder bands
Protocol: An assay comparing the endogenous exonuclease activity of a reference polymerase, T7 DNA polymerase, with the exonuclease activity of a polymerase comprising the amino acid of SEQ ID NO: 7, was performed. Exonuclease activity was measured by incubating 2, 4 or 10 μg of each enzyme sample with 7.5 μL Invitrogen Low Mass ladder, (10068-013) in a 50 μL reaction containing 10 mM Tris, pH 7.5, 50 mM NaCl and 10 mM MgCl2 for 16 hours at 37° C. in an ABI 9700 PCR machine. The samples were resolved via electrophoresis on a 1.2% E-Gel (Life Technologies). The extent of exonuclease activity was estimated by visually assessing the disappearance of the bands of the Low Mass ladder, as compared to negative control reactions, to which water (“W”) or enzyme storage buffer (“SB”) was added instead of purified polymerase).

[6] = test system: hairpin-template, test nanoparticle; assay: Nanoparticle tolerance assay (primer extension with and without test nanoparticle); conditions: 100 nM polymerase, 100 nM nanoparticle, 23° C.
Protocol: The nanoparticle tolerance of exemplary modified and reference polymerases was measured and compared. The nucleotide incorporation activity of an exemplary modified polymerase comprising the amino acid sequence of SEQ ID NO: 19 and further comprising the amino acid substitution D175A was measured both in the absence and presence of equimolar amounts of a test nanoparticle. The results were compared to those of an exemplary reference Phi-29 polymerase comprising the amino acid sequence of SEQ ID NO: 20.
Primer extension activity was measured using an assay wherein free pyrophosphate released as a result of extension of a primer:template duplex is detected as a fluorescent product. […] The resulting fluorescence emissions were monitored as a function of time using a plate reader (Molecular Devices, SpectraMax M5). Reactions without nucleotides were also monitored as negative controls. Reactions were monitored for 20 minutes or until the samples reached saturation.
Exemplary results are depicted in FIG. 5, which provides a graph of relative fluorescence observed in each sample (RFU, arbitrary units, Y axis) against time (seconds, X axis). […] Primer extension activity was measured as the average slope of the curve obtained by plotting fluorescence (RFU) vs. time (seconds, X axis) between the zero time point and at 5 minutes. […]

Substance | t−1 [3] | tpol [4] | other results
SEQ ID NO: 1: exemplary polymerase of the bacteriophage Phi-29 [reference compound] |  |  | estimated t−1 values [1]: comparable; estimated tpol values [2]: comparable
mB103 + D507G: modified B103 polymerase of SEQ ID NO: 8 with substitution D507G | 13 | 11 | 
mB103 + H370R: modified B103 polymerase of SEQ ID NO: 8 with substitution H370R | 43 | 17 | 
mB103 + H370Y: modified B103 polymerase of SEQ ID NO: 8 with substitution H370Y | 12 | 15 | 
mB103 + E371Y: modified B103 polymerase of SEQ ID NO: 8 with substitution E371Y | 7 | 11 | 
mB103 + K509Y: modified B103 polymerase of SEQ ID NO: 8 with substitution K509Y | 20 | 10 | 
T7 DNA polymerase: reference polymerase, positive control for exonuclease activity [reference compound] |  |  | exonuclease activity [5]: comparable levels of exonuclease activity
mB103 + E371R: modified B103 polymerase of SEQ ID NO: 8 with substitution E371R | 17 | 11 | 
mB103 + D507H: modified B103 polymerase of SEQ ID NO: 8 with substitution D507H | 16 | 7 | 
reference Phi-29 polymerase: reference Phi-29 polymerase of Example 5; SEQ ID NO: 20 or SEQ ID NO: 1 with N62D [reference compound] |  |  | nanoparticle tolerance [6]: 50%; loss in primer extension activity in the presence of equimolar amounts of the test nanoparticle ([6]; slope zero to 5 minutes): 50%
SEQ ID NO: 7: B103 polymerase variant with substitutions F383L and D384N |  |  | exonuclease activity [5]: comparable levels of exonuclease activity
